Converted amounts (≈) assume the structure as drawn.
Tests used:
Staphylococcus aureus = assay: Micromax assay of DNA fragmentation by DNase released with lysostaphin after azithromycin (Example 3); format: cell-based; conditions: for DNA fragmentation of released nucleoids: azithromycin 2 μg/ml 120 min followed by lysostaphin 10 μg/ml 1 min
Procedure: In an exemplification of this principal, two strains of S. aureus growing in Mueller-Hinton agar with 5% sheep blood were assayed. One strain was susceptible to the macrolide azithromycin (an inhibitor of protein synthesis) (FIGS. 13-15) and the other strain was a clinical isolate resistant to azithromycin (FIGS. 16-18). The purpose was to rapidly distinguish susceptible and non-susceptible strains to azithromycin. Cultures were processed direct from standard growing agar plates 18-24 h and it was not necessary the cells being exponentially growing previously to the assay.
Each of these strain was subjected to four treatments. One portion of both strains was incubated with azithromycin at 2 μg/ml for 120 min; 2 μg/ml being indicated by the CLSI as the breakpoint of susceptibility to azithromycin. The cells were then lysed to release nucleoids and images of FIGS. 13 and 16 were generated. Another portion of each strain was incubated with lysostaphin at 10 μg/ml for 1 min. FIGS. 14 and 17 depict the nucleoids released in each strain for this treatment. Still another portion was incubated with Azithromycin at 2 μg/ml for 120 min followed by lysostaphin at 10 μg/ml for 1 min, without removing the azithromycin. The assays for these treatments can be seen at FIGS. 15 and 18. A final portion was left without either antibiotic.
After the incubation, the cells were processed using the variant of a Micromax technology to lyse cells with affected cell walls. As indicated previously, samples from cells from the culture are immersed in an agarose microgel on a slide and incubated with a specific lysing solution to remove the cell wall in those cells affected by lysostaphin and release in the microgel the nucleoids contained inside the bacteria. These are dried, stained with a highly sensitive fluorochrome for DNA like SYBR Gold and visualized under fluorescence microscopy.

H. influenzae = assay: Cell enlargement by low-dose mitomycin C after azithromycin; format: cell-based, Haemophilus influenzae; conditions: azithromycin 4 μg/ml 30 min followed by mitomycin C 0.5 μg/ml 120 min; azithromycin-resistant strain
Procedure: In one exemplification, two strains of H. influenzae exponentially growing in Mueller-Hinton broth were incubated under four differing treatments and then assayed. One strain was susceptible and the other resistant to the macrolide azithromycin (an inhibitor of protein synthesis). For the purpose of rapidly distinguishing the susceptible and the resistant strain to azithromycin each strain was incubated under four sets of conditions.
A portion of each strain was incubated with azithromycin at 4 μg/ml for 150 minutes. The dose azithromycin corresponded to the dose indicated by the CLSI as the breakpoint of susceptibility to azithromycin in the standard antibiograms based on microdilution. Another portion of each strain was incubated with Mitomycin C at 0.5 μg/ml for 120 minutes. Still another portion was incubated with azithromycin at 4 μg/ml for 30 min followed by mitomycin C at 0.5 μg/ml for 120 min, without removing the azithromycin. A final portion of each strain was not incubated with any antibiotics.

S. pneumoniae [1] = assay: MIC, standard antibiogram based on microdilution; format: cell-based; conditions: Streptococcus pneumoniae
Procedure: (§1) A quantitative method may rely on dilution in a series of broths or agar solutions having progressively lower concentrations of the antibiotic in question. The lowest concentration of antibiotic in which the bacteria cannot grow provides the minimum inhibitory concentration of that antibiotic to the tested strain of bacteria. This quantitative method may be routinely employed in the hospitals, usually using commercial panels of antibiotics and semi-automated systems of incubation and software for data interpretation like the MicroScan WalkAway™ (Siemens), Phoenix (Becton Dickinson), or Vitek™ 2 (bioMérieux). With such growth-dependent automated systems, results of susceptibility or resistance to antimicrobians from a specific microorganism may be obtained in around 6-9 hours.
(§2) In an exemplification of this principal, two strains of S. pneumoniae growing in Mueller-Hinton II broth complemented with cations and 2-5% lysed horse blood, at 37° C. with 5% CO2, were assayed. […] The purpose of the assay was to distinguish rapidly the susceptible and the resistant (i.e. non-susceptible) strain to azithromycin.

S. pneumoniae [2] = assay: Micromax assay of autolysis and DNA fragmentation induced by Triton-lysozyme-EDTA after azithromycin (Example 4); format: cell-based, Streptococcus pneumoniae; conditions: for cells lysed and with fragmented DNA: azithromycin 0.5 μg/ml 60 min followed by Triton-lysozyme-EDTA 5 min; for less fragmentation than incubation with Triton-lysozyme-EDTA alone: azithromycin 0.5 μg/ml 60 min followed by Triton-lysozyme-EDTA
Procedure: as §2
Each of these two strains were subjected to four treatments. A first portion of both strains was incubated with azithromycin at a concentration of 0.5 μg/ml for 60 min. The dose was that indicated by the CLSI as the breakpoint of susceptibility to azithromycin in the standard antibiogram based on microdilution. Another portion of both strains was incubated with 0.05% Triton X-100, 2 mg/ml lysozyme, 25 mM EDTA, 5 min. Still another portion of each strain was incubated with azithromycin at 0.5 μg/ml for 60 min followed by 0.05% Triton X-100, 2 mg/ml lysozyme, 25 mM EDTA, 5 min, without removing the azithromycin. A final portion of each strain remained without any antibiotics.
After incubation cells were processed using the variant of the Micromax technology to visualize the nucleoids. In the same manner indicated previously, samples from cells from the culture are immersed in an agarose microgel on a slide and incubated with a specific lysing solution to remove the cell wall in all the cells and release in the microgel the nucleoids contained inside the bacteria. […] The microgels are dried, stained with a high sensitive fluorochrome for DNA like SYBR Gold and visualized under fluorescence microscopy.

Enterococcus faecalis [3] = assay: MIC, standard antibiogram based on microdilution; format: cell-based
Procedure: as §1
(§3) As an example, two strains of Enterococcus faecalis exponentially growing in Mueller-Hinton broth were incubated under four different conditions and then assayed. […] Each strain was subjected to four treatments for the purpose of rapidly distinguishing the susceptible and the resistant strain to erythromycin.

Enterococcus faecalis [4] = assay: Variant Micromax assay of cell lysis by lysozyme after erythromycin (Example 6); format: cell-based; conditions: for lysed cells: erythromycin 0.5 μg/ml 75 min, lysozyme 1 mg/ml during last 10 min
Procedure: as §3
The dose was that indicated by the CLSI as the breakpoint of susceptibility to erythromycin in the standard antibiogram based on microdilution. Another portion of both strains was incubated with lysozyme 1 mg/ml, 10 min at 37° C. […]
After incubation with lysozyme, the cells were processed using a variant of the Micromax technology to visualize the nucleoids, i.e. spreading of the bacterial chromosomal DNA, in all the cells of the population. Samples from the cultures were immersed in an agarose microgel on a slide and incubated with a specific lysing solution to remove the cell wall in all the cells and release in the microgel the nucleoids contained inside the bacteria. These are dried, stained with a highly sensitive fluorochrome for DNA like SYBR Gold and visualized under fluorescence microscopy.

[5] = azithromycin-susceptible strain
[6] = erythromycin-susceptible strain

SMILES | DNA fragmentation of released nucleoids (Staphylococcus aureus; azithromycin-resistant clinical isolate) | DNA fragmentation of released nucleoids (Staphylococcus aureus; [5]) | modification of the appearance of the bacteria (Staphylococcus aureus; azithromycin alone 2 μg/ml 120 min, both strains) | cell enlargement (H. influenzae) | MIC (S. pneumoniae [1]; azithromycin-resistant strain) | MIC (S. pneumoniae [1]; [5]) | cells lysed and with fragmented DNA (S. pneumoniae [2]; resistant strain) | cells lysed and with fragmented DNA (S. pneumoniae [2]; susceptible strain) | less fragmentation than incubation with Triton-lysozyme-EDTA alone (S. pneumoniae [2]; resistant strain) | less fragmentation than incubation with Triton-lysozyme-EDTA alone (S. pneumoniae [2]; susceptible strain) | modification of the bacteria (S. pneumoniae [2]; azithromycin alone 0.5 μg/ml 60 min, both strains) | MIC (Enterococcus faecalis [3]; erythromycin-resistant strain) | MIC (Enterococcus faecalis [3]; [6]) | lysed cells (Enterococcus faecalis [4]; erythromycin-resistant strain) | lysed cells (Enterococcus faecalis [4]; [6]) | response pattern in further Enterococcus strains (Enterococcus faecalis [4]; four more erythromycin-susceptible and thirteen more erythromycin-resistant strains)
CC[C@H]1OC(=O)[C@H](C)[C@@H](O[C@H]2C[C@@](C)(OC)[C@@H](O)[C@H](C)O2)[C@H](C)[C@@H](O[C@@H]2O[C@H](C)C[C@H](N(C)C)[C@H]2O)[C@](C)(O)C[C@@H](C)CN(C)[C@H](C)[C@@H](O)[C@]1(C)O [azithromycin] | a large extend of DNA fragmentation | strongly reduced level of DNA fragmentation or even suppression of DNA fragmentation | did not result in modification of the appearance of the bacteria | the bacteria appeared enlarged | > 32 mg/L | 0.25 mg/L (≈ 0.334 µM) | 86% | about 40% | 7% | 44% | did not result in modification of the bacteria |  |  |  |  | 
CC[C@H]1OC(=O)[C@H](C)[C@@H](O[C@H]2C[C@@](C)(OC)[C@@H](O)[C@H](C)O2)[C@H](C)[C@@H](O[C@@H]2O[C@H](C)C[C@H](N(C)C)[C@H]2O)[C@](C)(O)C[C@@H](C)C(=O)[C@H](C)[C@@H](O)[C@]1(C)O [erythromycin] |  |  |  |  |  |  |  |  |  |  |  | > 128 mg/L | 0.125 mg/L (≈ 0.17 µM) | 96.77% | 3.87% | a similar response pattern has been reproduced

— patent US10472663B2, “Procedure for the rapid determination of bacterial susceptibility to antibiotics that inhibit protein synthesis” (ABM TECHNOLOGIES, LLC, priority 2015, dated 2019)
